Data taken from PMC12141164, “Phase-1 study of vamotinib (PF-114), a 3rd generation BCR::ABL1 tyrosine kinase-inhibitor, in chronic myeloid leukaemia” (Annals of Hematology, 2025).
Values joined by “and” are separate entries in the source; they are usually repeats but may differ in a detail not shown here. Identical values can stand only once. Marks after values point to notes of the source that are not given here.

Test system: BCR::ABL1 positive CML
Assay: Phase-1 study: haematological, cytogenetic and molecular response
Assay type: in vivo, human
Conditions: for Best response achieved on PF-114: individual patients
Method: Haematological response evaluations were done on the first day of each cycle of therapy; molecular response on the first day of cycles 1, 2, 4, 7, 10, 13 and then every three months; cytogenetic response – at screening and on the first days of cycles 4, 7, 13 and every three months thereafter, provided that there was no major molecular response.
Cytogenetic response was assessed by differential staining of chromosomes and if uninformative, by fluorescent in situ hybridization (FISH). Mutations in BCR::ABL1 were assessed by Sanger and next generation sequencing (NGS). Sanger sequencing was done at each center; NGS analyses were done in the laboratory of Prof. Susan Branford, University of Adelaide. Discordances were resolved as described in Table S2. Molecular response was assessed using the ratio of BCR::ABL1 to ABL1 measured according to the IS [9].

[1] = Subjects after ponatinib (N = 5)

Cc1ccc(C(=O)Nc2ccc(CN3CCN(C)CC3)c(C(F)(F)F)c2)cc1C#Cc1nnc2ccccn12 [vamotinib]
Subjects with loss of MCyR (Cohort 5 500 mg N=3): 0 no. (%)
Subjects with loss of MMR (Cohort 5 500 mg N=3): 0 no. (%)
CCyR achieved at treatment (Cohort 6 600 mg N=6): 0 no. (%)
CCyR by 6 months (Cohort 6 600 mg N=6): 0 no. (%)
CCyR by 12 months (Cohort 6 600 mg N=6): 0 no. (%)
CHR achieved at treatment (Cohort 6 600 mg N=6): 2 (33) no. (%)
CHR by the 3 months (Cohort 6 600 mg N=6): 2 (33) no. (%)
CHR by the 6th months (Cohort 6 600 mg N=6): 2 (33) no. (%)
CHR by the 12th months (Cohort 6 600 mg N=6): 2 (33) no. (%)
MCyR achieved at treatment (Cohort 6 600 mg N=6): 0 no. (%)
MCyR by 6 months (Cohort 6 600 mg N=6): 0 no. (%)
MCyR by 12 months (Cohort 6 600 mg N=6): 0 no. (%)
MMR achieved at treatment (Cohort 6 600 mg N=6): 0 no. (%)
MMR by 6 months (Cohort 6 600 mg N=6): 0 no. (%)
MMR by 12 months (Cohort 6 600 mg N=6): 0 no. (%)
MMR by 24 months (Cohort 6 600 mg N=6): 0 no. (%)
Subjects with loss of CCyR (Cohort 6 600 mg N=6): 0 no. (%)
Subjects with loss of CHR (Cohort 6 600 mg N=6): 0 no. (%)
Subjects with loss of MCyR (Cohort 6 600 mg N=6): 0 no. (%)
Subjects with loss of MMR (Cohort 6 600 mg N=6): 0 no. (%)
CCyR achieved at treatment (Cohort 7 750 mg N=4): 0 no. (%)
CCyR by 6 months (Cohort 7 750 mg N=4): 0 no. (%)
CCyR by 12 months (Cohort 7 750 mg N=4): 0 no. (%)
CHR achieved at treatment (Cohort 7 750 mg N=4): 1 (25) no. (%)
CHR by the 3 months (Cohort 7 750 mg N=4): 1 (25) no. (%)
CHR by the 6th months (Cohort 7 750 mg N=4): 1 (25) no. (%)
CHR by the 12th months (Cohort 7 750 mg N=4): 1 (25) no. (%)
MCyR achieved at treatment (Cohort 7 750 mg N=4): 0 no. (%)
MCyR by 6 months (Cohort 7 750 mg N=4): 0 no. (%)
MCyR by 12 months (Cohort 7 750 mg N=4): 0 no. (%)
MMR achieved at treatment (Cohort 7 750 mg N=4): 0 no. (%)
MMR by 6 months (Cohort 7 750 mg N=4): 0 no. (%)
MMR by 12 months (Cohort 7 750 mg N=4): 0 no. (%)
MMR by 24 months (Cohort 7 750 mg N=4): 0 no. (%)
Subjects with loss of CCyR (Cohort 7 750 mg N=4): 0 no. (%)
Subjects with loss of CHR (Cohort 7 750 mg N=4): 0 no. (%)
Subjects with loss of MCyR (Cohort 7 750 mg N=4): 0 no. (%)
Subjects with loss of MMR (Cohort 7 750 mg N=4): 0 no. (%)
CCyR achieved at treatment (Cohort 8 300 mg N=9): 5 no. (%) and 5 (56) no. (%)
CCyR by 6 months (Cohort 8 300 mg N=9): 3 (33) no. (%)
CCyR by 12 months (Cohort 8 300 mg N=9): 4 (44) no. (%)
CHR achieved at treatment (Cohort 8 300 mg N=9): 4 (100) no. (%)
CHR by the 3 months (Cohort 8 300 mg N=9): 4 (100) no. (%)
CHR by the 6th months (Cohort 8 300 mg N=9): 4 (100) no. (%)
CHR by the 12th months (Cohort 8 300 mg N=9): 4 (100) no. (%)
MCyR achieved at treatment (Cohort 8 300 mg N=9): 6 no. (%) and 6 (86) no. (%)
MCyR by 6 months (Cohort 8 300 mg N=9): 4 (57) no. (%)
MMR achieved at treatment (Cohort 8 300 mg N=9): 4 no. (%) and 4 (44) no. (%)
MMR by 6 months (Cohort 8 300 mg N=9): 3 (33) no. (%)
MMR by 12 months (Cohort 8 300 mg N=9): 3 (33) no. (%)
MMR by 24 months (Cohort 8 300 mg N=9): 4 (44) no. (%)
Subjects with loss of CCyR (Cohort 8 300 mg N=9): 1 (20) no. (%)
Subjects with loss of CHR (Cohort 8 300 mg N=9): 2 (50) no. (%)
Subjects with loss of MCyR (Cohort 8 300 mg N=9): 1 (17) no. (%)
Subjects with loss of MMR (Cohort 8 300 mg N=9): 0 no. (%)
CCyR [1]: none and 0/5^*
MCyR [1]: none and 0/5
MMR [1]: 0/5^*
MMR (Subjects with BCR::ABL1^T315I (N = 16)): 0/16
CCyR achieved at treatment (Total N=51): 10 no. (%) and 10 (20) no. (%)
CCyR by 6 months (Total N=51): 6 (12) no. (%)
CCyR by 12 months (Total N=51): 7 (14) no. (%)
CHR achieved at treatment (Total N=51): 14 no. (%) and 14 (47) no. (%)
CHR by the 3 months (Total N=51): 11 (37) no. (%)
CHR by the 6th months (Total N=51): 11 (37) no. (%)
CHR by the 12th months (Total N=51): 14 (47) no. (%)
MCyR achieved at treatment (Total N=51): 14 no. (%) and 14 (32) no. (%)
MCyR by 6 months (Total N=51): 10 (23) no. (%)
MCyR by 12 months (Total N=51): 11 (25) no. (%)
MMR achieved at treatment (Total N=51): 7 no. (%) and 7 (14) no. (%)
MMR by 6 months (Total N=51): 4 (8) no. (%)
MMR by 12 months (Total N=51): 4 (8) no. (%)
MMR by 24 months (Total N=51): 7 (14) no. (%)
Subjects with loss of CCyR (Total N=51): 2 (20) no. (%)
Subjects with loss of CHR (Total N=51): 8 no. (%) and 8 (57) no. (%)
Subjects with loss of MCyR (Total N=51): 2 (14) no. (%)
subjects achieving deep molecular response MR4.5 (dose of 300 mg): One
Median time to achieving a CHR (in vivo): 3.8 months
median time to MMR (in vivo): 5,6 months
median time to achievement of CCyR (in vivo): 5.6 months
median time to achievement of MCyR (in vivo): 4.5 months
Best response achieved on PF-114 (dose cohort 50 mg): CHR
Best response achieved on PF-114 (dose cohort 100 mg, listed as PF-114): MCyR and MMR
Best response achieved on PF-114 (dose cohort 125 mg): MR 4.5
Best response achieved on PF-114 (dose cohort 200 mg, listed as PF-114): CHR and MCyR and CCyR and MR 4
Best response achieved on PF-114 (dose cohort 300 mg, listed as PF-114): MMR and CHR and MR 4 and CCyR and MR 4.5
Best response achieved on PF-114 (dose cohort 400 mg, listed as PF-114): CHR and CCyR and MCyR
Best response achieved on PF-114 (dose cohort 600 mg): CHR
Best response achieved on PF-114 (dose cohort 750 mg): CHR
time to CHR (one subject, myeloid variant M0 blast crisis, i(17) and BCR::ABL1^T315I): 5 weeks
duration of CCyR (subjects with BCR::ABL1^T315I): 2.8 months
duration of MCyR (subjects with BCR::ABL1^T315I): 2.8 months
